Calls of active or inactive are those of the source.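 How the source made its calls: active means luminescence drop in every repeat test, with half-maximal concentration at most ten times the top dose; inconclusive means repeat tests disagree; inactive means inactive in every repeat test.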
tested on: Vibrio harveyi JMH597 AI-2 quorum sensing luminescence, 9 h; assay: LuxS/LuxPQ-dependent luminescence inhibition, V. harveyi – dry powder, set 3, dose response (AID 493075); conditions: not given

| SMILES | AC50 [µM] |
| --- | --- |
| O=S(=O)(Nc1cccnc1)c1ccc(Oc2ccccc2)cc1 | 0.627 |
| O=C1C=C/C(=C/Br)O1 | 3.78 |
| C[C@H](CO)N1C[C@H](C)[C@@H](CN(C)Cc2ccc3c(c2)OCO3)Oc2c(NC(=O)NC3CCCCC3)cccc2C1=O | 7.05 |
| CCc1ccc(S(=O)(=O)Nc2ccc(Br)cn2)cc1 | 3.67 |
| CCc1ccc(-c2ccc(C(=O)O)n2C)cc1 | 4.46 |
| C[C@@H]1CN([C@H](C)CO)C(=O)c2ccccc2-c2ccccc2CO[C@@H]1CN(C)Cc1ccc(Oc2ccccc2)cc1 | 12.7 |
| C=Cn1c(C(=O)O)ccc1-c1ccc(Cl)cc1 | 4.97 |
| C=Cn1c(C(=O)O)ccc1-c1ccc(OC)cc1 | 8.59 |

tested on: not listed separately; assay: as above; conditions: Vibrio harveyi JMH597 AI-2 quorum sensing luminescence, 9 h; at 16 µM (top of the series)

| SMILES | activity change, negative = inhibition |
| --- | --- |
| C[C@@H]1CCCCO[C@@H](CN(C)C(=O)Nc2ccc(C(F)(F)F)cc2)[C@H](C)CN([C@@H](C)CO)C(=O)c2cc(NC(=O)CCC(F)(F)F)ccc2O1 | -7.66% (inactive) |
| C[C@@H]1CN([C@@H](C)CO)C(=O)Cc2cc(NC(=O)CCN3CCOCC3)ccc2O[C@H]1CN(C)C(=O)Nc1ccc(F)cc1 | -10.1% (inactive) |
| Cc1ccc(S(=O)(=O)Nc2ccc3c(c2)CC(=O)N([C@@H](C)CO)C[C@@H](C)[C@H](CN(C)C(=O)Nc2ccc(F)cc2)O3)cc1 | -1.6% (inactive) |
| C[C@H]1CN([C@@H](C)CO)C(=O)c2cc(NC(=O)Nc3ccc4c(c3)OCO4)ccc2O[C@@H]1CN(C)C(=O)Nc1ccc(C(F)(F)F)cc1 | -5.41% (inactive) |
| C[C@H](CO)N1C[C@H](C)[C@H](CN(C)Cc2ccc(C(=O)O)cc2)Oc2ncc(-c3ccc(C(=O)N(C)C)cc3)cc2C1=O | 24.5% (inactive) |
| CNC[C@@H]1Oc2ccc(NC(=O)C3CCCCC3)cc2CC(=O)N([C@@H](C)CO)C[C@H]1C | -5.97% (inactive) |
| C=Cn1c(C(=O)O)ccc1-c1cccs1 | 1.45% (inactive) |
| O=S(=O)(Nc1ccccn1)c1ccccc1 | -0.42% (inactive) |
| C[C@@H]1CCCCO[C@@H](CN(C)C(=O)Nc2cccc3ccccc23)[C@H](C)CN([C@H](C)CO)C(=O)c2cc(NC(=O)CCC(F)(F)F)ccc2O1 | -4.12% (inactive) |
| C[C@H](CO)N1C[C@H](C)[C@@H](CN(C)C(=O)Nc2ccc(C(F)(F)F)cc2)Oc2ccc(NC(=O)Nc3ccc4c(c3)OCO4)cc2C1=O | -5.58% (inactive) |
| C[C@@H]1CCCCO[C@@H](CN(C)Cc2ccncc2)[C@H](C)CN([C@H](C)CO)C(=O)c2cc(NC(=O)C3CCCCC3)ccc2O1 | 0.341% (inactive) |
| Cc1ccc(S(=O)(=O)Nc2ccc3c(c2)C(=O)N([C@H](C)CO)C[C@H](C)[C@@H](CN(C)Cc2ccc(C(F)(F)F)cc2)O3)cc1 | -11% (inactive) |
| C[C@@H]1CN([C@@H](C)CO)C(=O)Cc2cc(NC(=O)CCCN(C)C)ccc2O[C@H]1CN(C)CC1CCCCC1 | 5.19% (inactive) |
| C[C@@H]1CN([C@H](C)CO)C(=O)c2cccc(NC(=O)Nc3ccc(C(F)(F)F)cc3)c2O[C@@H]1CN(C)C(=O)Nc1ccc(C(F)(F)F)cc1 | -16.5% (inactive) |
| C[C@@H]1CCCCO[C@@H](CN(C)Cc2ccc(C(=O)O)cc2)[C@H](C)CN([C@H](C)CO)C(=O)c2cc(NC(=O)CCCN(C)C)ccc2O1 | -4.89% (inactive) |
| C[C@@H]1CN([C@@H](C)CO)C(=O)Cc2cc(NC(=O)CCN3CCOCC3)ccc2O[C@H]1CN(C)C(=O)Nc1ccc(C(F)(F)F)cc1 | -2.52% (inactive) |

Source: PubChem BioAssay AID493075 (Broad Institute, 2011)
